These results are taken from patent publication US20050197350A1, “Novel quinoline, tetrahydroquinazoline, and pyrimidine derivatives and methods of treatment related to the use thereof” (TAISHO PHARMACEUTICAL CO., LTD., priority 2003, published 2005).

The assay has as its system MCH receptors. The assay can be described thus: MCH receptor activity class (method not given).
The mark [1] stands for this setting: class by percent of control at 10^-7 M or IC50.
Where [2] appears, read: MCH receptor activity class 1-3 (percent of control at 10^-7 M or IC50).
[3] abbreviates: class by percent of control at 10^−7 M or IC50.

Like-named read-outs stand apart in the source and are kept apart here.

In the case of `CC(NC(=O)N[C@H]1CC[C@@H](Nc2nccc(N(C)C)n2)CC1)c1cccc2ccccc12` (relative stereo) [compound 2224, N-(cis-4-{[4-(dimethylamino)pyrimidin-2-yl]amino}cyclohexyl)-N′-[1-(1-naphthyl)ethyl]urea], the class under setting [1] is reported as 1 (Class 1: The value of percent of control at 10^−7 M was less than 40% or the value of IC50 was less than 50 nM.).

Take `COC(=O)[C@H](Cc1ccccc1)NC(=O)N[C@H]1CC[C@@H](Nc2nccc(N(C)C)n2)CC1` (relative stereo) [compound 2225]: under setting [1], the class is reported as 3 (Class 3 The value of percent of control at 10^−7 M was more than 60% or the value of IC50 was more than 200 nM.).

On to `CC(NC(=O)N[C@H]1CC[C@@H](Nc2nccc(N(C)C)n2)CC1)c1ccccc1` (relative stereo) [compound 2226], for which, under setting [1], the class was 3 (Class 3 The value of percent of control at 10^−7 M was more than 60% or the value of IC50 was more than 200 nM.).

For the compound `CC(NC(=O)N[C@H]1CC[C@@H](Nc2nccc(N(C)C)n2)CC1)c1ccc(Br)cc1` (relative stereo) [compound 2248], under setting [1], the class is 3 (Class 3 The value of percent of control at 10^−7 M was more than 60% or the value of IC50 was more than 200 nM.).

Turning to `CCOC(=O)[C@H](Cc1ccccc1)NC(=O)N[C@H]1CC[C@@H](Nc2nccc(N(C)C)n2)CC1` (relative stereo) [compound 2250], under setting [1], the class is reported as 3 (Class 3 The value of percent of control at 10^−7 M was more than 60% or the value of IC50 was more than 200 nM.).

As to `CN(C)c1cc(N[C@H]2CC[C@@H](NC(=S)NC3CC4CCC3C4)CC2)nc2ccccc12` (relative stereo) [compound 2310], under setting [2], the class is listed as 3 (Class 3 The value of percent of control at 10^−7 M was more than 60% or the value of IC50 was more than 200 nM.).

For `CN(C)c1ccnc(N[C@H]2CC[C@@H](NC(=S)NC3CC4CCC3C4)CC2)n1` (relative stereo) [compound 2355], the class under setting [2] was 3 (Class 3 The value of percent of control at 10^−7 M was more than 60% or the value of IC50 was more than 200 nM.).

For `CCOC(=O)[C@H](CC(C)C)NC(=O)NC[C@H]1CC[C@@H](Nc2cc(N(C)C)c3ccccc3n2)CC1` (relative stereo) [compound 2363], under setting [2], the class is given as 3 (Class 3 The value of percent of control at 10^−7 M was more than 60% or the value of IC50 was more than 200 nM.).

As to `CCOC(=O)[C@H](CC(C)C)NC(=O)NC[C@H]1CC[C@@H](Nc2nccc(N(C)C)n2)CC1` (relative stereo) [compound 2409], the class under setting [2] is on record as 3 (Class 3 The value of percent of control at 10^−7 M was more than 60% or the value of IC50 was more than 200 nM.).

Turning to `CCOC(=O)[C@H](CC(C)C)NC(=O)NC[C@H]1CC[C@@H](Nc2nc3c(c(N(C)C)n2)CCCC3)CC1` (relative stereo) [compound 2455], the class under setting [2] is on record as 2 (Class 2: The value of percent of control at 10^−7 M was from 40% to 60% or the value of IC′50 was from 50 nM to 200 nM.).

Consider `Cc1cnc(N[C@H]2CC[C@@H](C(=O)NC(C)c3ccc(Br)cc3)CC2)nc1N(C)C` (relative stereo) [compound 2779], for which the class under setting [3] is reported as 1 (Class 1: The value of percent of control at 10^−7 M was less than 40% or the value of IC50 was less than 50 nM.).

Take `Cc1cnc(N[C@H]2CC[C@@H](C(=O)N[C@@H](C)c3cccc4ccccc34)CC2)nc1N(C)C` (relative stereo) [compound 2783, cis-4-{[4-(dimethylamino)-5-methylpyrimidin-2-yl]ainino}-N-[(1S)-1-(1-naphthyl)ethyl]cyclohexanecarboxamide]: the class under setting [3] was 1 (Class 1: The value of percent of control at 10^−7 M was less than 40% or the value of IC50 was less than 50 nM.).

On to `Cc1nc(N[C@H]2CC[C@@H](NC(=O)C(O)c3cc(F)cc(F)c3)CC2)nc(N(C)C)c1C` (relative stereo) [compound 2829, 2-(3,5-difluorophenyl)-N-(cis-4-{[4-(dimethylamino)-5,6-dimethylpyrimidin-2-yl]amino}cyclohexyl)-2-hydroxyacetamide], for which, under setting [3], the class is recorded as 2 (Class 2: The value of percent of control at 10^−7 M was from 40% to 60% or the value of IC′50 was from 50 nM to 200 nM.).

Consider `Cc1cnc(N[C@H]2CC[C@@H](NC(=O)C(C)c3ccc(Cl)cc3)CC2)nc1N(C)C` (relative stereo) [compound 2874, 2-(4-chlorophenyl)-N-(cis-4-{[4-(dimethylamino)-5-methylpyrimidin-2-yl]amino}cyclohexyl)propanamide], for which the class under setting [3] is 1 (Class 1: The value of percent of control at 10^−7 M was less than 40% or the value of IC50 was less than 50 nM.).

As to `Cc1cnc(N[C@H]2CC[C@@H](NC(=O)C(O)c3ccc(Cl)cc3)CC2)nc1N(C)C` (relative stereo) [compound 2876, 2-(4-chlorophenyl)-N-(cis-4-{[4-(dimethylamino)-5-methylpyrimidin-2-yl]amino}cyclohexyl)-2-hydroxyacetamide], under setting [3], the class is 1 (Class 1: The value of percent of control at 10^−7 M was less than 40% or the value of IC50 was less than 50 nM.).

`Cc1cnc(N[C@H]2CC[C@@H](NC(=O)C[S+]([O-])c3ccccc3C(F)(F)F)CC2)nc1N(C)C` (relative stereo) [compound 2880]: the class under setting [3] is recorded as 1 (Class 1: The value of percent of control at 10^−7 M was less than 40% or the value of IC50 was less than 50 nM.).

In the case of `Cc1cnc(N[C@H]2CC[C@@H](NC(=O)C[S+]([O-])c3ccccc3Cl)CC2)nc1N(C)C` (relative stereo) [compound 2881, 2-[(2-chlorophenyl)sulfinyl]-N-(cis-4-{[4-(dimethylamino)-5-methylpyrimidin-2-yl]amino}cyclohexyl)acetamide], under setting [3], the class is given as 1 (Class 1: The value of percent of control at 10^−7 M was less than 40% or the value of IC50 was less than 50 nM.).

Regarding `Cc1cnc(N[C@H]2CC[C@@H](NC(=O)C[S+]([O-])c3cccc(Br)c3)CC2)nc1N(C)C` (relative stereo) [compound 2882, 2-[(3-bromophenyl)sulfinyl]-N-(cis-4-{[4-(dimethylamino)-5-methylpyrimidin-2-yl]amino}cyclohexyl)acetamide], the class under setting [3] is 1 (Class 1: The value of percent of control at 10^−7 M was less than 40% or the value of IC50 was less than 50 nM.).

As for `Cc1cnc(N[C@H]2CC[C@@H](NC(=O)C[S+]([O-])c3ccc(F)c(F)c3)CC2)nc1N(C)C` (relative stereo) [compound 2883, 2-[(3,4-difluorophenyl)sulfinyl]-N-(cis-4-{[4-(dimethylamino)-5-methylpyrimidin-2-yl]amino}cyclohexyl)acetamide], the class under setting [3] was 2 (Class 2: The value of percent of control at 10^−7 M was from 40% to 60% or the value of IC′50 was from 50 nM to 200 nM.).

In the case of `CCOC(=O)c1cccc(NC(=S)N[C@H]2CC[C@@H](Nc3nc4c(c(N(C)C)n3)CCCC4)CC2)c1` [Example 1773], the class under setting [1] is reported as 3 (Class 3 The value of percent of control at 10^−7 M was more than 60% or the value of IC50 was more than 200 nM.).

`CN(C)c1nc(N[C@H]2CC[C@@H](NC(=S)Nc3ccc(Cl)cc3C(F)(F)F)CC2)nc2c1CCCC2` [Example 1774]: the class under setting [1] is on record as 2 (Class 2: The value of percent of control at 10^−7 M was from 40% to 60% or the value of IC′50 was from 50 nM to 200 nM.).

In the case of `Cc1cccc(C(=O)N[C@H]2CC[C@@H](Nc3cc(C)c4ccccc4n3)CC2)c1` [Example 2543, 3-methyl-N-{cis-4-[(4-methylquinolin-2-yl)amino]cyclohexyl}benzamide], the class came out at 1.
